Test results reported in patent publication US6639089B2, “Anticancer agents, perfumes or foods and drinks” (Soda Aromatic Co., Ltd., priority 2001, dated 2003).
Read-outs that look alike come from different tables or passages of the source.

Columns and labels:
[1] = system: melanoma cell line B16BL6; assay: Cancer cell mobility test (cancer invasion inhibitory action), Boyden double chamber with Matrigel/fibronectin; assay type: cell-based; settings: for Tumor Invasion (cell/mm^2) 5 μM / Tumor Invasion (cell/mm^2) 20 μM: administered to cells 18 hours in advance, B16BL6, counted after 3.5 hours; for activity at 20 µM: Mus musculus
Description: (§1) A Boyden double chamber was used, in which a porous film with 8 μm pores was placed, the upper surface of the porous film being coated with Matrigel as a reconstructed membrane, the lower surface of the porous film being coated with fibronectin as an extracellular matrix. In the upper compartment of the chamber, 200,000 cells of melanoma cell line B16BL6, a type of skin cancer, were inoculated, and after 3.5 hours, Diff Quick staining was performed and the number of invasive cancer cells invading the lower compartment was counted using a CCD camera/multibioscanner. The compounds of the present invention were administered to cancer cells for 18 hours in advance at amounts of 5 μM and 20 μM.

[2] = system: human fibrosarcoma cell line HT1080; assay: as above; assay type: cell-based; settings: for Tumor Invasion (cell/mm^2) 5 μM / Tumor Invasion (cell/mm^2) 10 μM: administered to cells 18 hours in advance, HT1080, counted after 3.5 hours; for Cell Invasion Rate at 10 μM (%): relative to no addition = 100%, lower value = higher inhibition
Description: as §1, with “of human fibrosarcoma” for “of melanoma”, “line HT1080” for “line B16BL6, a type of skin cancer,”, “and 10” for “and 20”

[3] = system: B-16 melanoma cell line BL; assay: Cancer metastasis inhibitory action test (in vivo), lung metastasis after caudal vein injection of melanoma cells; settings: lungs on day 14, mean of 6 mice
Description: Cancer cells of B-16 melanoma cell line BL were incubated in a 5% CO2 incubator using an MEM culture medium (containing 10% FBS), and the individual cells were dissociated with a 2.5% trypsin solution. The melanoma cells were injected into the caudal vein of BDF1 mice (SPF). The number of cells injected was 2×10^5/0.2 ml/mouse. As test compounds for cancer metastasis inhibitory action, 15-hydroxypentadecanoic acid, 15-pentadecanolide, and 5-cyclohexadecen-1-one were used, and as a positive control compound, Mitomycin Kyowa S (manufactured by Kyowa Hakko Kokyo Co., Ltd.) was used. The test compounds and the positive control compound were dissolved or suspended in olive oil and administered as shown in Table 5 below. (In the case of intravenous administration, micellisation was performed using Tween before administration.) The dosage of the test compounds was 100 mg/kg each time in the case of peritoneal administration, and 10 mg/kg each time in the case of intravenous administration. The dosage of Mitomycin Kyowa S as the positive control compound was 0.5 mg/kg each time by peritoneal administration.
From day 10 post-implant onward, metastatic cancer cells of mice in the satellite group were observed, and on day 14 when the size of the cells was believed to be suitable for evaluation, the mice were sacrificed and the lungs were enucleated. The number of metastatic cancer cells was then counted.

[4] = system: melanoma cell line B16BL6; settings: comparison derivatives of L-ascorbic acid (JP-A-8-291075); cited from earlier work
[5] = system: adenocarcinoma 755 cell line; assay: Test for action of killing cancer (in vivo), subcutaneous tumor weight; parameters: species or system mice; settings: subcutaneous injection daily at 10 mg/kg for 5 days; tumors excised day 10 post-implant; control group 9.0 g
Description: In the backs of 6-week-old mice (first filial hybrid of C57BL/6 and DBA/2), 10^6 cells of adenocarcinoma 755 cell line were subcutaneously implanted. After 24 hours, a solution in which each sample was suspended, at a concentration of 50 mg/ml, in a physiological saline solution of 0.25% surfactant Nikkol HCO-60 (manufactured by Nikko Chemicals Co., Ltd.; polyoxyethylene (40) hydrogenated castor oil), was subcutaneously injected into a group of 8 mice, daily at 10 mg/kg for 5 days. On day 10 post-implant of adenocarcinoma 755 cells, the mice were sacrificed and tumors were excised. The average weight (g) of the tumors was obtained. As a result, the average weight of the control group was 9.0 g, while the average weight of the group to which 5-cyclohexadecen-1-one had been administered was as small as 1.9 g. The significant action of killing cancer was thus confirmed.

[6] = system: Rat spontaneous mammary cancer cells (SST-2); assay: Cancer metastasis inhibitory action test (in vivo), lung metastasis of subcutaneously implanted SST-2; settings: day 7 pre-implant to day 34 post-implant; for Average number of metastatic colonies formed: lung, after 35 days; for Lung weight / Subcutaneous tumor weight: sacrifice after 35 days
Description: Rat spontaneous mammary cancer cells (SST-2) (1×10^5 cells) were subcutaneously implanted in the backs of Wister male rats (5 rats for each group). After 35 days, the rats were sacrificed, and the lung weight and the number of colonies formed were measured to observe the extent of lung metastasis of the SST-2. With respect to the groups to which 5-cyclohexadecen-1-one as the compound of the present invention was administered, 20 mg/rat and 5 mg/rat were orally administered and subcutaneously injected, from day 7 pre-implant to day 34 post-implant, and the subcutaneous tumor weight, the lung weight, and the number of metastatic colonies formed were compared with those of the control group, to which no treatment was provided.

[7] = B16-BL6, 20 μM, relative to no addition = 100%, lower value = higher inhibition, read-out: Cell Invasion Rate at 20 μM (%)
[8] = Peritoneal administration, 100 mg/kg each time
[9] = B16-BL6, read-out: Cell Invasion Rate at 20 μM (%)
[10] = Subcutaneous injection 5 mg/rat
[11] = Subcutaneous injection 20 mg/rat

Row | Compound | Tumor Invasion (cell/mm^2) 5 μM [1] | Tumor Invasion (cell/mm^2) 20 μM ([1]; 20 μM) | activity at 20 µM [1, 7] | Tumor Invasion (cell/mm^2) 5 μM [2] | Tumor Invasion (cell/mm^2) 10 μM [2] | Cell Invasion Rate at 10 μM (%) [2] | other results
1 | O=C1CCCCCCCC=CCCCCCCO1 [9-hexadecen-16-olide] | 257 ± 42 cell/mm^2 | 113 ± 19 cell/mm^2 | 22.5% | – | – | – | –
2 | CCCCCCCCCCCC1CCCC(=O)O1 (centres unmarked) [5-hexadecanolide] | – | – | – | 144 cell/mm^2 | 111 cell/mm^2 | 27.5% | –
3 | O=C(O)CCCCCCCCCCCCCCO [15-hydroxypentadecanoic acid] | 289 ± 45 cell/mm^2 | 135 ± 11 cell/mm^2 | 26.8% | – | – | – | Number of metastatic cells [3, 8]: 78.0
4 | CCCCCCCCCCCCCCCC(=O)OC[C@H](O)[C@H]1OC(=O)C(O)=C1O [L-ascorbyl 6-O-palmitate] | – | – | – | – | – | – | concentration at which a 25% cancer cell invasion inhibition was obtained [4]: approximately 110 μM
5 | O=C1CCCCCCCCCCCCCCO1 [15-pentadecanolide] | 386 ± 26 cell/mm^2 | 324 ± 27 cell/mm^2 | 64.4% | – | – | – | Number of metastatic cells ([3]; Intravenous administration, 10 mg/kg each time, 3 times on day of implantation): 52.2; Number of metastatic cells [3, 8]: 134.3
6 | CO[C@@]12[C@H](COC(N)=O)C3=C(C(=O)C(C)=C(N)C3=O)N1C[C@@H]1N[C@@H]12 [Mitomycin, reference compound] | – | – | – | – | – | – | Number of metastatic cells ([3]; Peritoneal administration, 0.5 mg/kg each time, 3 times on day of implantation): 21.2
7 | O=C(O)CCCCCCCCCCCC(=O)CCCO [16-hydroxy-13-oxohexadecanoic acid] | – | – | – | 214 cell/mm^2 | 121 cell/mm^2 | 31.8% | –
8 | CNC(=O)[C@@H](NC(=O)[C@H](CC(C)C)[C@H](O)C(=O)NO)C(C)(C)C [Marimastat, reference compound] | – | – | – | 269 cell/mm^2 | 172 cell/mm^2 | 42.6% | –
9 | O=C1CCCCCCCCCCCCCC1 [Cyclopentadecanone] | 459 ± 39 cell/mm^2 | 491 ± 35 cell/mm^2 | – | – | – | – | activity at 20 µM [1, 9]: 109%
10 | O=C1CCCCCCCCCCCC(=O)OCCO1 [Ethylene tridecanedioate] | – | – | – | 226 cell/mm^2 | 84 cell/mm^2 | 16.0% | –
11 | O=C1CCCCCCCCCCCCCCCO1 [16-hexadecanolide] | 370 ± 62 cell/mm^2 | 293 ± 43 cell/mm^2 | 58.3% | – | – | – | –
12 | O=C(O)CCCCCCCCCCC(=O)CCCO [15-hydroxy-12-oxopentadecanoic acid] | 268 ± 34 cell/mm^2 | 119 ± 25 cell/mm^2 | 23.7% | – | – | – | –
13 | O=C1CCCCCCCCCCCO1 [12-dodecanolide] | 405 ± 38 cell/mm^2 | 461 ± 67 cell/mm^2 | 91.7% | – | – | – | –
14 | O=C(O)CCCCCCCCCCCCCCCO [16-hydroxyhexadecanoic acid] | 301 ± 47 cell/mm^2 | 199 ± 32 cell/mm^2 | – | – | – | – | activity at 20 µM [1, 9]: 39.6%
15 | O=C1CCCC=CCCCCCCCCCC1 [5-cyclohexadecen-1-one] | 285 ± 36 cell/mm^2 | 143 ± 14 cell/mm^2 | 31.6% | – | – | – | Number of metastatic cells [3, 8]: 35.6; average weight of the tumors [5]: 1.9 g; Average number of metastatic colonies formed ([6]; Oral administration 5 mg/rat): 28.4; Lung weight ([6]; Oral administration 5 mg/rat): 1.5 g; Subcutaneous tumor weight ([6]; Oral administration 5 mg/rat): 46.4 g; Average number of metastatic colonies formed ([6]; Oral administration 20 mg/rat): 17.5; Lung weight ([6]; Oral administration 20 mg/rat): 1.4 g; Subcutaneous tumor weight ([6]; Oral administration 20 mg/rat): 44.7 g; Average number of metastatic colonies formed [6, 10]: 15.7; Lung weight [6, 10]: 1.3 g; Subcutaneous tumor weight [6, 10]: 43.5 g; Average number of metastatic colonies formed [6, 11]: 10.9; Lung weight [6, 11]: 1.1 g; Subcutaneous tumor weight [6, 11]: 42.0 g
16 | 12-oxahexadecen-16-olide | – | – | – | 218 cell/mm^2 | 109 cell/mm^2 | 20.8% | –
17 | O=C1O[C@H]([C@@H](O)CO)C(O)=C1OP(=O)(O)O [L-ascorbyl 2-phosphate] | – | – | – | – | – | – | concentration at which a 25% cancer cell invasion inhibition was obtained [4]: approximately 280 μM
18 | O=C(O)CCCCCCCCCCCO [12-hydroxydodecanoic acid] | 324 ± 23 cell/mm^2 | 246 ± 30 cell/mm^2 | – | – | – | – | activity at 20 µM [1, 9]: 48.9%
19 | 11(12)-pentadecen-15-olide | 234 ± 17 cell/mm^2 | 146 ± 31 cell/mm^2 | – | – | – | – | Cell Invasion Rate at 20 μM (%) ([1]; 20 μM, relative to no addition = 100%, lower value = higher inhibition): 29.0%
20 | CCOC(=O)CCCCCCCCCC=CCCCO [ethyl-15-hydroxy-11(12)-pentadecenoate] | – | – | – | 129 cell/mm^2 | 106 cell/mm^2 | 28.6% | –
